Assay results as given in patent US20110077279A1, “ANGIOTENSIN II RECEPTOR ANTAGONISTS” (priority 2008, published 2011).

Tests used:
[1] = test system: conscious spontaneously hypertensive rats (SHRs); assay: Assay for antihypertensive activity (in vivo), telemetry; design: species or system rat
Experimental: The ability of the compounds of the invention to decrease blood pressure was evaluated in conscious spontaneously hypertensive rats (SHRs). SHRs (250-300 g) received a single oral dose of tested compounds. Systolic blood pressure (SBP) and heart rate were monitored by telemetry for 24 hrs after dosing. SBP was evaluated before (baseline) and at different time points (i.e. 2-6, 12, 21-24 hrs) following treatment by oral administration of the compounds. The data were processed both as the absolute value or as a delta between the absolute value and its own baseline.
The Dataquest IV telemetry system (Data Sciences International) was used for measurement of systolic pressure, diastolic pressure, mean arterial pressure, heart rate, and motor activity. The monitoring system consists of a transmitter (radio frequency transducer model TA11PA), receiver panel, consolidation matrix, and personal computer with accompanying software. Before the device was implanted, calibrations were verified to be accurate within ±3 mmHg. Rats were anesthetized with ketamine/xylazine/acepromazine, and the flexible catheter of the transmitter was surgically secured in the abdominal aorta just below the renal arteries. The transmitter was sutured subcutaneously. Rats were housed in individual cages after the operation. Each cage was placed over the receiver panel that was connected to the personal computer for data acquisition. The rats were unrestrained and free to move within their cages. Hemodynamic data were sampled every 2 minutes for 10 seconds.
Compared to Compound A (reference compound), the compounds of the invention provided BP lowering with extended peak effect and duration of action (see Data Table 2).

[2] = test system: isolated rabbit thoracic aorta preparations; assay: Assay on vascular tone: vasorelaxation of noradrenaline-precontracted aortic rings; assay type: cell-based; details: Oryctolagus cuniculus; rabbit aortic rings precontracted with noradrenaline 1 μM, functional endothelium; read-out: EC50 in vessel relaxation assay
Experimental: The ability of the compounds of the invention to induce vasorelaxation in comparison to native angiotensin II receptor blockers (ARBs), was tested in vitro in isolated rabbit thoracic aorta preparations (Wanstall J. C. et al., Br. J. Pharmacol., 134:463-472, 2001). Male New Zealand rabbits were anaesthetized with thiopental-Na (50 mg/kg, iv), sacrificed by exsanguinations and then the thorax was opened and the aorta dissected. Aortic ring preparations (4 mm in length) were set up in physiological salt solution (PSS) at 37° C. in small organ chambers (5 ml). The composition of PSS was (mM): NaCl 130, NaHCO3 14.9, KH2PO4 1.2, MgSO4 1.2, HEPES 10, […] (95% O2/5% CO2; pH 7.4). Each ring was mounted under 2 g passive tension. Isometric tension was recorded with a Grass transducer (Grass FT03) attached to a BIOPAC MP150 System. Preparations were allowed to equilibrate for 1 h, and then contracted submaximally with noradrenaline (NA, 1 μM) and, when the contraction was stable, acetylcholine (ACh, 10 μM) was added. A relaxant response to ACh indicated the presence of a functional endothelium. […] When a stable precontraction was reached, a cumulative concentration-response curve to either of the vasorelaxant agents was obtained in the presence of a functional endothelium. Each arterial ring was exposed to only one combination of inhibitor and vasorelaxant. Moreover, the effect of the soluble guanylyl cyclase inhibitor ODQ (1-H-(1,2,4)-oxadiazol(4,3-a)quinoxalin-1-one) on vasorelaxation elicited by the compounds was examined preincubating the aortic rings with ODQ (10 μM) for 20 min.
Responses to relaxing agents are expressed as a percentage of residual contraction and plotted against concentration of test compound. EC50 values (where EC50 is the concentration producing 50% of the maximum relaxation to the test compound) were interpolated from these plots.
During the experimental period, the plateau obtained with NA was stable without significant spontaneous loss of contraction in the aortic rings. […]

[3] = 2-6 h after single oral dose, 10 mpk
[4] = 21-24 h after single oral dose, 10 mpk
[5] = 12 h after single oral dose, 10 mpk

CCCCc1nc(Cl)c(C(=O)OCCOCCO[N+](=O)[O-])n1Cc1ccc(-c2ccccc2-c2nn[nH]n2)cc1 [A, reference compound]
Δ SBP in SHR [1, 3]: −15 mmHg | Δ SBP in SHR [1, 4]: −8 mmHg | Δ SBP in SHR [1, 5]: −12 mmHg

CCCCc1nc(Cl)c(C(=O)OC(C)OC(=O)O[C@@H]2CO[C@H]3[C@@H]2OC[C@H]3OC(=O)CCCC(CO[N+](=O)[O-])O[N+](=O)[O-])n1Cc1ccc(-c2ccccc2-c2nnn[nH]2)cc1 (stereo partly drawn) [Example 1, 1-(((3R,3aR,6R,6aR)-6-(5,6-bis(nitrooxy)hexanoyloxy)hexahydrofuro[3,2-b]furan-3-yloxy)carbonyloxy)ethyl 1-((2′-(1H-tetrazol-5-yl)biphenyl-4-yl)methyl)-2-butyl-4-chloro-1H-imidazole-5-carboxylate]
Δ SBP in SHR [1, 3]: −19 mmHg | Δ SBP in SHR [1, 4]: −11 mmHg | Δ SBP in SHR [1, 5]: −14 mmHg | EC50 [2]: 6200 nM

CCOc1nc2cccc(C(=O)OC(C)(C)OC(=O)O[C@@H]3CO[C@H]4[C@@H]3OC[C@H]4OC(=O)CCCC(CO[N+](=O)[O-])O[N+](=O)[O-])c2n1Cc1ccc(-c2ccccc2-c2nnn[nH]2)cc1 (stereo partly drawn) [Example 2, 2-(((3R,3aR,6R,6aR)-6-(5,6-bis(nitrooxy)hexanoyloxy)hexahydrofuro[3,2-b]furan-3-yloxy)carbonyloxy)propan-2-yl 1-((2′-(1H-tetrazol-5-yl)biphenyl-4-yl)methyl)-2-ethoxy-1H-benzo[d]imidazole-7-carboxylate]
Δ SBP in SHR ([1]; 2-6 h after single oral dose, 3 mpk): −37 mmHg | Δ SBP in SHR ([1]; 21-24 h after single oral dose, 3 mpk): −33 mmHg | Δ SBP in SHR ([1]; 12 h after single oral dose, 3 mpk): −34 mmHg | EC50 [2]: 270 nM

CCOc1nc2cccc(C(=O)OC(C)(C)OC(=O)O[C@@H]3CO[C@H]4[C@@H]3OC[C@H]4OC(=O)OCCC(C)(C)CC(CO[N+](=O)[O-])O[N+](=O)[O-])c2n1Cc1ccc(-c2ccccc2-c2nn[nH]n2)cc1 (stereo partly drawn) [Example 3, 2-(((3R,3aR,6R,6aR)-6-((3,3-dimethyl-5,6-bis(nitrooxy)hexyloxy)carbonyloxy)hexahydrofuro[3,2-b]furan-3-yloxy)carbonyloxy)propan-2-yl 1-((2′-(2H-tetrazol-5-yl)biphenyl-4-yl)methyl)-2-ethoxy-1H-benzo[d]imidazole-7-carboxylate]
EC50 [2]: 180 nM
